Literature values, collected in patent US20220225611A1, “NON-NATURAL INSECT PHEROMONE BLEND COMPOSITIONS” (Provivi, Inc., priority 2019, published 2022).

Assays:
[1] = test system: C. suppressalis; conditions: Chen et al. (2018)
[2] = test system: S. incertulas; conditions: Cork & Souza (1996)

SMILES	effect on attractiveness of a pheromone mixture [1]	effect of presence in a pheromone blend on mating disruption [2]
CCCCCCCC/C=C\CCCCCCCC=O [Z9-18Ald, (Z)-9-Octadecenal]	reduces the attractiveness	–
CCCC/C=C\CCCCCCCCCCCC=O [Z13-18Ald, (Z)-13-Octadecenal]	–	not be produce increased mating disruption
